Results on 32 compounds are retold here after US20240261398A1 (priority 2018, published 2024).

Where a name gives a salt, the structure may show the parent alone. Where only a bound is given, the exact number is not on record here.

In assay [1] the test system is A/California/07/2009 virus (H1N1; CA07). More on the design: species or system BALB/c mice. To be noted: mouse, in vivo.
Assay [2] shares this test system. Details: species or system BALB/c mice. The following applies: mouse, in vivo. This is another data set of the same source.
Assay [3] deals with Ebola GP protein. It counts as in vivo, BALB/c mice.

`O=C([O-])[C@H](O)[C@@H](O)[C@H](O)[C@H](O)CO.[Na+]`: in assay [1], the “Mean value of antibody titers, Only compound” value was under 10; the “Mean value of antibody titers, Vaccine + compound” value (“Mean value … Vaccine + compound” for short) turned out to be 1600.00; the “Relative ratio of antibody titer to alum (Compound/alum)” value came out at 1.00.

As to `[Cl-].[K+]` [Potassium chloride], in assay [1], the “Mean value of antibody titers, Only compound” value is on record as under 10; the “Mean value … Vaccine + compound” value was 2920.00; the “Relative ratio of antibody titer to alum (Compound/alum)” value came out at 1.83.

As to `O=C1/C(=C2\Nc3ccc(S(=O)(=O)[O-])cc3C2=O)Nc2ccc(S(=O)(=O)[O-])cc21.[Na+].[Na+]` [Indigo Carmine], in assay [2], the “Antibody titers in primary screening, Vaccine + compound” value (shortened to “Antibody titers in primary screening”) was 1280.00 and the “Relative ratio of antibody titer to alum (compound/alum), primary screening” value came to 1.50. In assay [1], the “Antibody titers in secondary screening, Vaccine + compound” value (shortened to “Antibody titers in secondary screening”) came to 485 and the “Relative ratio of antibody titer to alum (compound/alum), secondary screening” value came out at 0.81.

With `CC(CC=O)CCCC(C)(C)O` (stereo not shown) [Hydroxycitronellal], in assay [2], the “Antibody titers in primary screening” value stood at 2773.33. Moreover, the “Antibody titers in secondary screening” value in assay [1] is given as 1280.

As to `CC(C)=CCCC(C)CCO` (racemic) [(+/−)-Citronellol], the “Antibody titers in primary screening” value in assay [2] came out at 960.00. Further, in assay [1], the “Antibody titers in secondary screening” value is on record as 260.

Turning to `CCN(Cc1cccc(S(=O)(=O)[O-])c1)c1ccc(C(=C2C=CC(=[N+](CC)Cc3cccc(S(=O)(=O)[O-])c3)C=C2)c2ccc(O)cc2S(=O)(=O)[O-])cc1.[Na+].[Na+]`, in assay [2], the “Antibody titers in primary screening” value was 2133.33 and the “Relative ratio of antibody titer to alum (compound/alum), primary screening” value is on record as 1.00. In assay [1], the “Antibody titers in secondary screening” value came out at 440 and the “Relative ratio of antibody titer to alum (compound/alum), secondary screening” value is listed as 0.73.

As to `[Br-].[Na+]` [Sodium bromide], in assay [1], the “Mean value of antibody titers, Only compound” value is recorded as under 10; the “Mean value … Vaccine + compound” value was 970.00; the “Relative ratio of antibody titer to alum (Compound/alum)” value is 0.87.

Turning to `CC1(C)[C@@H](O[C@H]2O[C@H](C(=O)O)[C@@H](O)[C@H](O)[C@H]2O[C@@H]2O[C@H](C(=O)O)[C@@H](O)[C@H](O)[C@H]2O)CC[C@]2(C)[C@H]3C(=O)C=C4[C@@H]5C[C@@](C)(C(=O)O)CC[C@]5(C)CC[C@@]4(C)[C@]3(C)CC[C@@H]12`, the “Antibody titers in primary screening” value in assay [2] was 5973.33. In assay [1], the “Antibody titers in secondary screening” value is 2560.

On to `CC(C)=CCC[C@@H](C)CC=O`, for which the “Antibody titers in primary screening” value in assay [2] is 333.33. Also, the “Antibody titers in secondary screening” value in assay [1] stood at 35.

For the compound `C[C@@H]1O[C@@H](O[C@H]2[C@H](Oc3cc(O)c4c(c3)O[C@H](c3ccc(O)cc3)CC4=O)O[C@H](CO)[C@@H](O)[C@@H]2O)[C@H](O)[C@H](O)[C@H]1O` [Naringin], the “Antibody titers in primary screening” value in assay [2] is recorded as 2133.33. Also, in assay [1], the “Antibody titers in secondary screening” value is on record as 2240.

With `CCN(Cc1cccc(S(=O)(=O)[O-])c1)c1ccc(C(=C2C=CC(=[N+](CC)Cc3cccc(S(=O)(=O)[O-])c3)C=C2)c2ccccc2S(=O)(=O)[O-])cc1.[Na+].[Na+]`, in assay [2], the “Antibody titers in primary screening” value is reported as 1333.33 and the “Relative ratio of antibody titer to alum (compound/alum), primary screening” value was found to be 0.69. In assay [1], the “Antibody titers in secondary screening” value amounted to 990 and the “Relative ratio of antibody titer to alum (compound/alum), secondary screening” value worked out at 1.65.

Turning to `CC(=O)[O-].[Na+]` [Sodium acetate], in assay [1], the “Mean value of antibody titers, Only compound” value is given as under 10; the “Mean value … Vaccine + compound” value is 740.00; the “Relative ratio of antibody titer to alum (Compound/alum)” value is 0.66.

For `CC=Cc1ccc(O)c(OC)c1` [Isoeugenol], the “Antibody titers in primary screening” value in assay [2] came to 2986.67. For the same compound, in assay [1], the “Antibody titers in secondary screening” value stood at 140.

Consider `O=C([O-])c1ccccc1.[Na+]` [Sodium benzoate], for which, in assay [1], the “Mean value of antibody titers, Only compound” value is recorded as under 10; the “Mean value … Vaccine + compound” value amounted to 1600.00; the “Relative ratio of antibody titer to alum (Compound/alum)” value was determined as 1.21; the “virus-specific antibody titers compared with the alum adjuvant” value was “equal to or higher than the alum adjuvant did”.

`COC(=O)[C@H](Cc1ccccc1)NC(=O)[C@H](CC(=O)O)NCCC(C)(C)C` [Neotame]: in assay [2], the “Antibody titers in primary screening” value was determined as 2560.00 and the “Relative ratio of antibody titer to alum (compound/alum), primary screening” value was determined as 2.00. Moreover, in assay [1], the “Antibody titers in secondary screening” value stood at 720; the “Relative ratio of antibody titer to alum (compound/alum), secondary screening” value is 1.00; the “virus-specific antibody titers compared with the alum adjuvant” value is reported as “equal to or higher than the alum adjuvant did”.

As to `[O]=[Zn]` [Zinc oxide], the “Mean value … Vaccine + compound” value in assay [3] (Ebola VLP 1 μg/dose + compound, i.m. twice, serum two weeks after second immunization, mean of 4 mice) is given as 400.00. In addition, the “Antibody titer ratio (a)” value in assay [3] ([VLP + candidate compound]/[VLP + AddaVax]) amounted to 0.67. Also, in assay [3] (compound alone, mice treated as in the influenza adjuvant screening), the “Mean value of antibody titers, Only compound (c)” value is under 10.

On to `CC(C)=CCC/C(C)=C/COC=O` [Geranyl Formate], for which the “Antibody titers in primary screening” value in assay [2] is reported as 2560.00. In assay [1], the “Antibody titers in secondary screening” value is recorded as 960.

For the compound `COc1ccc([C@@H]2CC(=O)c3c(O)cc(O[C@@H]4O[C@H](CO[C@@H]5O[C@@H](C)[C@H](O)[C@@H](O)[C@H]5O)[C@@H](O)[C@H](O)[C@H]4O)cc3O2)cc1O` [Hesperidin], in assay [2], the “Antibody titers in primary screening” value was determined as 3840.00 and the “Relative ratio of antibody titer to alum (compound/alum), primary screening” value is on record as 1.13. Moreover, in assay [1], the “Antibody titers in secondary screening” value is reported as 2240 and the “Relative ratio of antibody titer to alum (compound/alum), secondary screening” value is 4.00.

Turning to `C[C@@H]1O[C@@H](OC[C@H]2O[C@@H](Oc3c(-c4ccc(O)c(O)c4)oc4cc(O)cc(O)c4c3=O)[C@H](O)[C@@H](O)[C@@H]2O)[C@H](O)[C@H](O)[C@H]1O` [Rutin], the “Antibody titers in primary screening” value in assay [2] is 2560.00. The “Antibody titers in secondary screening” value in assay [1] worked out at 1320.

For `CC1=C(/C=C/C(C)=C/C=C/C(C)=C/C=C/C=C(C)/C=C/C=C(C)/C=C/C2=C(C)CCCC2(C)C)C(C)(C)CCC1` [β-Carotene], in assay [2], the “Antibody titers in primary screening” value was determined as 960.00. In addition, the “Antibody titers in secondary screening” value in assay [1] turned out to be 1120.

With `CC(/C=C/C=C(\C)C(=O)O[C@@H]1O[C@H](CO[C@@H]2O[C@H](CO)[C@@H](O)[C@H](O)[C@H]2O)[C@@H](O)[C@H](O)[C@H]1O)=C\C=C\C=C(C)\C=C\C=C(/C)C(=O)O[C@@H]1O[C@H](CO[C@@H]2O[C@H](CO)[C@@H](O)[C@H](O)[C@H]2O)[C@@H](O)[C@H](O)[C@H]1O` [Crocin], the “Antibody titers in primary screening” value in assay [2] was 1066.67. Besides, the “Antibody titers in secondary screening” value in assay [1] worked out at 480.

For the compound `O=C([O-])[C@H](O)[C@@H](O)[C@H](O)[C@H](O)CO.O=C([O-])[C@H](O)[C@@H](O)[C@H](O)[C@H](O)CO.[Fe+2]`, in assay [2], the “Antibody titers in primary screening” value worked out at 853.33 and the “Relative ratio of antibody titer to alum (compound/alum), primary screening” value is recorded as 0.76. Further, in assay [1], the “Antibody titers in secondary screening” value came out at 3040 and the “Relative ratio of antibody titer to alum (compound/alum), secondary screening” value is listed as 1.90.

On to `O=S([O-])O.[Na+]`, for which, in assay [1], the “Mean value of antibody titers, Only compound” value is recorded as under 10; the “Mean value … Vaccine + compound” value stood at 730.00; the “Relative ratio of antibody titer to alum (Compound/alum)” value came out at 0.55.

Consider `Cn1cnc2c1c(=O)[nH]c(=O)n2C` [Theobromine], for which, in assay [2], the “Antibody titers in primary screening” value is 1333.33. In addition, the “Antibody titers in secondary screening” value in assay [1] was determined as 1440.

On to `COC(=O)c1ccccc1N` [Methyl Anthranilate], for which the “Antibody titers in primary screening” value in assay [2] came to 693.33. Further, the “Antibody titers in secondary screening” value in assay [1] is recorded as 2240.

For `O=S([O-])[O-].[Na+].[Na+]` [Sodium sulfite], in assay [1], the “Mean value of antibody titers, Only compound” value is reported as under 10; the “Mean value … Vaccine + compound” value was found to be 2080.00; the “Relative ratio of antibody titer to alum (Compound/alum)” value came out at 1.30; the “virus-specific antibody titers compared with the alum adjuvant” value was “equal to or higher than the alum adjuvant did”.

As for `c1ccc2cnccc2c1` [Isoquinoline], in assay [2], the “Antibody titers in primary screening” value is 1493.33. Further, the “Antibody titers in secondary screening” value in assay [1] was 1200.

Take `CC(C)C1=CC2=CC[C@@H]3[C@](C)(CCC[C@@]3(C)C(=O)O)[C@H]2CC1` [Abietic acid]: the “Antibody titers in primary screening” value in assay [2] is reported as 533.33. For the same compound, in assay [1], the “Antibody titers in secondary screening” value is 1280.

Consider `OC[C@@H](O)[C@H](O)[C@@H](O)CO` [Xylitol], for which, in assay [1], the “Mean value of antibody titers, Only compound” value is on record as under 10; the “Mean value … Vaccine + compound” value stood at 560.00; the “Relative ratio of antibody titer to alum (Compound/alum)” value was 0.35.

With `O=S([O-])([O-])=S.[Na+].[Na+]` [Sodium thiosulfate], in assay [1], the “Mean value of antibody titers, Only compound” value is under 10; the “Mean value … Vaccine + compound” value is 1320.00; the “Relative ratio of antibody titer to alum (Compound/alum)” value came out at 1.00.

For the compound `OC[C@H]1O[C@@H]2O[C@H]3[C@H](O)[C@@H](O)[C@@H](O[C@H]4[C@H](O)[C@@H](O)[C@@H](O[C@H]5[C@H](O)[C@@H](O)[C@@H](O[C@H]6[C@H](O)[C@@H](O)[C@@H](O[C@H]7[C@H](O)[C@@H](O)[C@@H](O[C@H]8[C@H](O)[C@@H](O)[C@@H](O[C@H]1[C@H](O)[C@H]2O)O[C@@H]8CO)O[C@@H]7CO)O[C@@H]6CO)O[C@@H]5CO)O[C@@H]4CO)O[C@@H]3CO` [β-Cyclodextrin], in assay [2], the “Antibody titers in primary screening” value is reported as 373.33 and the “Relative ratio of antibody titer to alum (compound/alum), primary screening” value is 0.22. In addition, in assay [1], the “Antibody titers in secondary screening” value stood at 1440 and the “Relative ratio of antibody titer to alum (compound/alum), secondary screening” value came out at 0.90.

On to `Cc1c(C(=O)O)c(O)cc2c1C(=O)c1c(O)c([C@@H]3O[C@H](CO)[C@@H](O)[C@H](O)[C@H]3O)c(O)c(O)c1C2=O` [Carminic acid], for which, in assay [2], the “Antibody titers in primary screening” value is listed as 746.67. For the same compound, the “Antibody titers in secondary screening” value in assay [1] is reported as 960.
